One assay relates to NCI-H1355. Kind of assay: relative viability (nuclei count vs DMSO), 5 days (fraction); higher = more cells survive. The settings on record: first compound 0.08 µM. The essentials: (§1)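 Cells from lung cancer lines were seeded into 1536-well plates and, one day later, dosed by pin tool. Treatments were either a single drug or a fixed dose of an anchor drug with five library-drug doses (not always all listed) in √10 steps. After 5 days, nuclei were stained in a one-step fixation (final 0.05% Triton X-100, 1% formaldehyde, 1 ug/ml Hoechst) and counted on 4× images, and relative viability is the treated-to-vehicle nuclei ratio, as the median of duplicate plates.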
In turn, `CCCCCCCCCCCC1=C(O)C(=O)C=C(O)C1=O` [Embelin] + O=C(CCCCCCC(=O)Nc1ccccc1)NO [Vorinostat] (partner 1 µM) came in with a relative viability of 0.649.

`CCCCCCCCCCCC1=C(O)C(=O)C=C(O)C1=O` [Embelin] + O=C(c1cc(Cc2n[nH]c(=O)c3ccccc23)ccc1F)N1CCN(C(=O)C2CC2)CC1 [Olaparib] (partner 8 µM) displayed a relative viability of 0.73.

In turn, `CCCCCCCCCCCC1=C(O)C(=O)C=C(O)C1=O` [Embelin] + Cc1cc(Nc2cc(N3CCN(C)CC3)nc(Sc3ccc(NC(=O)C4CC4)cc3)n2)n[nH]1 [Tozasertib] (partner 0.1 µM) registered a relative viability of 0.608.

In the case of `CCCCCCCCCCCC1=C(O)C(=O)C=C(O)C1=O` [Embelin] + Nc1ncn([C@H]2C[C@H](O)[C@@H](CO)O2)c(=O)n1 [Decitabine] (partner 2 µM), the relative viability amounted to 0.333.

The compound `CCCCCCCCCCCC1=C(O)C(=O)C=C(O)C1=O` [Embelin] + CC(=O)c1c(C)c2cnc(Nc3ccc(N4CCNCC4)cn3)nc2n(C2CCCC2)c1=O [Palbociclib] (partner 0.5 µM) yielded a relative viability of 0.411.

The assay is the same for the next values; noted with them: first compound 0.8 µM.
On to `CCCCCCCCCCCC1=C(O)C(=O)C=C(O)C1=O` [Embelin] + O=C(CCCCCCC(=O)Nc1ccccc1)NO [Vorinostat] (partner 1 µM), for which the relative viability is 0.699.

On to `CCCCCCCCCCCC1=C(O)C(=O)C=C(O)C1=O` [Embelin] + O=C(c1cc(Cc2n[nH]c(=O)c3ccccc23)ccc1F)N1CCN(C(=O)C2CC2)CC1 [Olaparib] (partner 8 µM), for which the relative viability was 0.675.

`CCCCCCCCCCCC1=C(O)C(=O)C=C(O)C1=O` [Embelin] + Cc1cc(Nc2cc(N3CCN(C)CC3)nc(Sc3ccc(NC(=O)C4CC4)cc3)n2)n[nH]1 [Tozasertib] (partner 0.1 µM): the relative viability is 0.704.

`CCCCCCCCCCCC1=C(O)C(=O)C=C(O)C1=O` [Embelin] + Nc1ncn([C@H]2C[C@H](O)[C@@H](CO)O2)c(=O)n1 [Decitabine] (partner 2 µM) registered a relative viability of 0.394.

Compound `CCCCCCCCCCCC1=C(O)C(=O)C=C(O)C1=O` [Embelin] + CC(=O)c1c(C)c2cnc(Nc3ccc(N4CCNCC4)cn3)nc2n(C2CCCC2)c1=O [Palbociclib] (partner 0.5 µM) had a relative viability of 0.416.

Staying with this assay, now noted: first compound 2.53 µM.
Consider `CCCCCCCCCCCC1=C(O)C(=O)C=C(O)C1=O` [Embelin] + O=C(CCCCCCC(=O)Nc1ccccc1)NO [Vorinostat] (partner 1 µM), for which the relative viability is 0.636.

For `CCCCCCCCCCCC1=C(O)C(=O)C=C(O)C1=O` [Embelin] + O=C(c1cc(Cc2n[nH]c(=O)c3ccccc23)ccc1F)N1CCN(C(=O)C2CC2)CC1 [Olaparib] (partner 8 µM), the relative viability was 0.869.

For `CCCCCCCCCCCC1=C(O)C(=O)C=C(O)C1=O` [Embelin] + Cc1cc(Nc2cc(N3CCN(C)CC3)nc(Sc3ccc(NC(=O)C4CC4)cc3)n2)n[nH]1 [Tozasertib] (partner 0.1 µM), the relative viability was determined as 0.546.

`CCCCCCCCCCCC1=C(O)C(=O)C=C(O)C1=O` [Embelin] + Nc1ncn([C@H]2C[C@H](O)[C@@H](CO)O2)c(=O)n1 [Decitabine] (partner 2 µM): the relative viability was determined as 0.421.

On to `CCCCCCCCCCCC1=C(O)C(=O)C=C(O)C1=O` [Embelin] + CC(=O)c1c(C)c2cnc(Nc3ccc(N4CCNCC4)cn3)nc2n(C2CCCC2)c1=O [Palbociclib] (partner 0.5 µM), for which the relative viability came out at 0.398.

The same assay, now with this note: first compound 8 µM.
For the compound `CCCCCCCCCCCC1=C(O)C(=O)C=C(O)C1=O` [Embelin] + O=C(CCCCCCC(=O)Nc1ccccc1)NO [Vorinostat] (partner 1 µM), the relative viability turned out to be 0.523.

In turn, `CCCCCCCCCCCC1=C(O)C(=O)C=C(O)C1=O` [Embelin] + O=C(c1cc(Cc2n[nH]c(=O)c3ccccc23)ccc1F)N1CCN(C(=O)C2CC2)CC1 [Olaparib] (partner 8 µM) gave a relative viability of 0.733.

Compound `CCCCCCCCCCCC1=C(O)C(=O)C=C(O)C1=O` [Embelin] + Cc1cc(Nc2cc(N3CCN(C)CC3)nc(Sc3ccc(NC(=O)C4CC4)cc3)n2)n[nH]1 [Tozasertib] (partner 0.1 µM) showed a relative viability of 0.499.

For the compound `CCCCCCCCCCCC1=C(O)C(=O)C=C(O)C1=O` [Embelin] + Nc1ncn([C@H]2C[C@H](O)[C@@H](CO)O2)c(=O)n1 [Decitabine] (partner 2 µM), the relative viability worked out at 0.358.

Turning to `CCCCCCCCCCCC1=C(O)C(=O)C=C(O)C1=O` [Embelin] + CC(=O)c1c(C)c2cnc(Nc3ccc(N4CCNCC4)cn3)nc2n(C2CCCC2)c1=O [Palbociclib] (partner 0.5 µM), the relative viability is 0.366.

The next assay has as its system NCI-H1666. The assay is described as above. The settings on record: first compound 0.08 µM. The essentials: as §1
Regarding `CCCCCCCCCCCC1=C(O)C(=O)C=C(O)C1=O` [Embelin] + O=C(CCCCCCC(=O)Nc1ccccc1)NO [Vorinostat] (partner 1 µM), the relative viability came out at 1.07.

In the case of `CCCCCCCCCCCC1=C(O)C(=O)C=C(O)C1=O` [Embelin] + O=C(c1cc(Cc2n[nH]c(=O)c3ccccc23)ccc1F)N1CCN(C(=O)C2CC2)CC1 [Olaparib] (partner 8 µM), the relative viability was determined as 0.749.

As for `CCCCCCCCCCCC1=C(O)C(=O)C=C(O)C1=O` [Embelin] + Cc1cc(Nc2cc(N3CCN(C)CC3)nc(Sc3ccc(NC(=O)C4CC4)cc3)n2)n[nH]1 [Tozasertib] (partner 0.1 µM), the relative viability came out at 0.615.

`CCCCCCCCCCCC1=C(O)C(=O)C=C(O)C1=O` [Embelin] + Nc1ncn([C@H]2C[C@H](O)[C@@H](CO)O2)c(=O)n1 [Decitabine] (partner 2 µM): the relative viability came to 0.712.

As for `CCCCCCCCCCCC1=C(O)C(=O)C=C(O)C1=O` [Embelin] + CC(=O)c1c(C)c2cnc(Nc3ccc(N4CCNCC4)cn3)nc2n(C2CCCC2)c1=O [Palbociclib] (partner 0.5 µM), the relative viability worked out at 0.638.

The same assay, now with this note: first compound 0.8 µM.
The compound `CCCCCCCCCCCC1=C(O)C(=O)C=C(O)C1=O` [Embelin] + O=C(CCCCCCC(=O)Nc1ccccc1)NO [Vorinostat] (partner 1 µM) came in with a relative viability of 1.03.

In turn, `CCCCCCCCCCCC1=C(O)C(=O)C=C(O)C1=O` [Embelin] + O=C(c1cc(Cc2n[nH]c(=O)c3ccccc23)ccc1F)N1CCN(C(=O)C2CC2)CC1 [Olaparib] (partner 8 µM) returned a relative viability of 0.779.

Take `CCCCCCCCCCCC1=C(O)C(=O)C=C(O)C1=O` [Embelin] + Cc1cc(Nc2cc(N3CCN(C)CC3)nc(Sc3ccc(NC(=O)C4CC4)cc3)n2)n[nH]1 [Tozasertib] (partner 0.1 µM): the relative viability came to 0.68.

`CCCCCCCCCCCC1=C(O)C(=O)C=C(O)C1=O` [Embelin] + Nc1ncn([C@H]2C[C@H](O)[C@@H](CO)O2)c(=O)n1 [Decitabine] (partner 2 µM) gave a relative viability of 0.812.

`CCCCCCCCCCCC1=C(O)C(=O)C=C(O)C1=O` [Embelin] + CC(=O)c1c(C)c2cnc(Nc3ccc(N4CCNCC4)cn3)nc2n(C2CCCC2)c1=O [Palbociclib] (partner 0.5 µM): the relative viability was found to be 0.624.

These data come from the supplement of paper PMC10307832.
